From patent publication US20100239639A1, “MEDICATED PATCH” (HISAMITSU PHARMACEUTICAL CO., INC., priority 2007, published 2010) come the findings set out here.

The data set in a line: Solubility test of BM-DBM. It counts as physicochemical. The following applies: 1 g BM-DBM mixed with 2 g additive, dissolved at 140° C., cooled to room temperature for 30 min. The method, then: 1 g of BM-DBM was mixed with 2 g of an additive, dissolved at 140° C., then the mixture was cooled to room temperature for 30 min and its state was observed.

Regarding `CCCCCCCCCCCC(=O)OCCCCCC` [Hexyl laurate], the “Solubility of BM-DBM” value is listed as “◯” and the “solubility of BM-DBM (in words)” value is reported as “particularly good solubility of BM-DBM”.
